Measured values reported in patent US11746087B1, “C4-carboxylic acid-substituted tryptamine derivatives and methods of using” (priority 2022, dated 2023).
Like-named read-outs stand apart in the source and are kept apart here.

Key:
[1] = Mouse PK study (IV and PO), plasma parent compound and psilocin by LC-MS/MS; assay type: in vivo; details: male, C57Bl/6, mouse, plasma; for C0: read-out: C0; for Vd: read-out: Vss
Source text: Briefly, the procedure was as follows. […] 19, 2022.

[2] = biological target: T1, HTR1A (5-HT1A) (Homo sapiens, UniProt P08908); experiment: EFC-based cAMP secondary messenger assay, antagonist mode; assay type: cell-based
T1 sequence (P08908 1-422): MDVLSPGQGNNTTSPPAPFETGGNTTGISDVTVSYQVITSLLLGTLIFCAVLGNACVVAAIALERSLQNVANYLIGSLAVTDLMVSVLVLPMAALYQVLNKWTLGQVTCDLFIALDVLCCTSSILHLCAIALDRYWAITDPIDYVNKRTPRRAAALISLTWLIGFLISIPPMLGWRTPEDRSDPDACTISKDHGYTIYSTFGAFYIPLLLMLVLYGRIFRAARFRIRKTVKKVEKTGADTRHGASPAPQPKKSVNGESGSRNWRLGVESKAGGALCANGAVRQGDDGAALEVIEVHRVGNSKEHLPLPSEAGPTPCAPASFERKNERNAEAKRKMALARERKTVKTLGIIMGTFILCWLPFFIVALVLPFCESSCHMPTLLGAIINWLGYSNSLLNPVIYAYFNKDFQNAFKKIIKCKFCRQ

[3] = biological target: T2, CHRM1 (Homo sapiens, UniProt P11229); experiment: cell-based; details: CHRM1; GPCR; ANT (antagonist)
T2 sequence (P11229 1-460): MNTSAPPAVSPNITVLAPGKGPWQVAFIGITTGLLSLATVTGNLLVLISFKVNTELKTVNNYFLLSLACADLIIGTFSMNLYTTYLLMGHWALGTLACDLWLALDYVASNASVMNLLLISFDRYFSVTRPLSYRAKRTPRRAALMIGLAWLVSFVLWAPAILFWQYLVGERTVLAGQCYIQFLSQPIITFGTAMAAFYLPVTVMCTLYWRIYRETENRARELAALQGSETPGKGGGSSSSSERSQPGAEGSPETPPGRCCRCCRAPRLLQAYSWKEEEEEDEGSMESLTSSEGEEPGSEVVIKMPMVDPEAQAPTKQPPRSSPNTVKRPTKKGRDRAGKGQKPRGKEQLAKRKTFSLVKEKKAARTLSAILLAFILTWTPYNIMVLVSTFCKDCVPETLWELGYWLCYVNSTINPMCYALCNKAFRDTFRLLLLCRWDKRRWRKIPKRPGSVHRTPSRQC

[4] = biological target: OPRD1 (Homo sapiens, UniProt P41143); experiment: EFC-based cAMP secondary messenger assay, antagonist mode; assay type: cell-based
Sequence of OPRD1 (P41143 whole entry): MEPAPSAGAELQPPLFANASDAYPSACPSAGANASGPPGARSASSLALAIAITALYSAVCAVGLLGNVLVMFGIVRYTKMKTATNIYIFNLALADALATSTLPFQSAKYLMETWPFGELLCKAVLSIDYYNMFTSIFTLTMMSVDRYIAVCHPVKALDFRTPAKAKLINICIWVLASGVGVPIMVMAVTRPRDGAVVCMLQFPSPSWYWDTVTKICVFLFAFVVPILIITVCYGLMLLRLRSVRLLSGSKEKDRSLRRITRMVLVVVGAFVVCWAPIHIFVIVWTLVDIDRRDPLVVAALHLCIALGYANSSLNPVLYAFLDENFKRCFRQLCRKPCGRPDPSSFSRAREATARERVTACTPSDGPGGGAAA

[5] = biological target: NMDAR (Homo sapiens, UniProt Q05586+Q13224); experiment: Ion channel assay (FLIPR membrane potential), opener; assay type: cell-based
Sequence of NMDAR (Q13224 27-1484, other chains not shown): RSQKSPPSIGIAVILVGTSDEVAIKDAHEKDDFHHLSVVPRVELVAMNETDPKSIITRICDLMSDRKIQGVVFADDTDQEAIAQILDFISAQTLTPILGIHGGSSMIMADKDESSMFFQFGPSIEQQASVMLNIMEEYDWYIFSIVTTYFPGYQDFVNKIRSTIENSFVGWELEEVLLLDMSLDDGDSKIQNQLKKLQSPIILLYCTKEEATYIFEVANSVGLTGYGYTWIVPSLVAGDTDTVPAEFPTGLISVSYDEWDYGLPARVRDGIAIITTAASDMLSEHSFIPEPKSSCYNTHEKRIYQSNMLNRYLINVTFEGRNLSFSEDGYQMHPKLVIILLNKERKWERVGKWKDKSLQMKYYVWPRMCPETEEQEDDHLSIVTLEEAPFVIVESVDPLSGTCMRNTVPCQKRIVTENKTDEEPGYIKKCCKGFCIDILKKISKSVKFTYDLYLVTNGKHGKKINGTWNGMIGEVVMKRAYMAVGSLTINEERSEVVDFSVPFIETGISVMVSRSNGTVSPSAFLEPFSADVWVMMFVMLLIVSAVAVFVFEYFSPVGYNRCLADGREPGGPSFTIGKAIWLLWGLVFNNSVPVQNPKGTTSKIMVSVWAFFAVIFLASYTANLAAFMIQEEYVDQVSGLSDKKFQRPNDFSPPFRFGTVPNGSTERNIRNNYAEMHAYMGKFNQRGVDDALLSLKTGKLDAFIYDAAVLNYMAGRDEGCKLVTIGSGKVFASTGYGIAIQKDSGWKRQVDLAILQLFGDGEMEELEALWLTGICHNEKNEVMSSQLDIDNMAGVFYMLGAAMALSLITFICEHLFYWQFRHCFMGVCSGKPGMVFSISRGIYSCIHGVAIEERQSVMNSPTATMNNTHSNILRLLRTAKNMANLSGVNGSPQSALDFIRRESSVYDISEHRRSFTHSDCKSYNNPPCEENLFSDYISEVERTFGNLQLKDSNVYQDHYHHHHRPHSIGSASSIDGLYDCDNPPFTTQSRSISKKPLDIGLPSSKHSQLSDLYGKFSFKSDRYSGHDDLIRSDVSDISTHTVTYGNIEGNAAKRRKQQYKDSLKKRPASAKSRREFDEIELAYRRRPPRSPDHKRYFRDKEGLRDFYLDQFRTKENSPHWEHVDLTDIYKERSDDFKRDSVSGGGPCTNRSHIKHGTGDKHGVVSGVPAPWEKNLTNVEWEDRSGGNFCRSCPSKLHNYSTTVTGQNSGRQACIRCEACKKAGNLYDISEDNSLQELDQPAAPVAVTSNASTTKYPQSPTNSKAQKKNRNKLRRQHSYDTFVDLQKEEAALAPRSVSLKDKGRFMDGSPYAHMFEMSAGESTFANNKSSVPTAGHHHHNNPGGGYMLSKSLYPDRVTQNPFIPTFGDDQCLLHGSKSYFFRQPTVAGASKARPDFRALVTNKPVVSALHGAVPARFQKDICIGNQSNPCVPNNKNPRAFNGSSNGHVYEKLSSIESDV

[6] = biological target: T1, HTR1A (5-HT1A); experiment: EFC-based cAMP secondary messenger assay, agonist mode; assay type: cell-based
[7] = iv, 1 mg/kg, C(XX) in plasma, 1 mg/kg i.v. C(XX), Mean ± SD
[8] = iv, 1 mg/kg, C(XX) in plasma, 1 mg/kg i.v. C(XX), per animal
[9] = oral, 1 mg/kg, 1 mg/kg oral C(XX), Mean ± SD, read-out: Plasma concentration of C(XX)
[10] = oral, 1 mg/kg, 1 mg/kg oral C(XX), per animal, BLQ <0.25 ng/mL, read-out: Plasma concentration of C(XX)
[11] = oral, 3 mg/kg, 3 mg/kg oral C(XX), Mean ± SD, read-out: Plasma concentration of C(XX)
[12] = oral, 3 mg/kg, 3 mg/kg oral C(XX), per animal, BLQ <0.25 ng/mL, read-out: Plasma concentration of C(XX)
[13] = oral, 10 mg/kg, 10 mg/kg oral C(XX), Mean ± SD, read-out: Plasma concentration of C(XX)
[14] = oral, 10 mg/kg, 10 mg/kg oral C(XX), per animal, BLQ <0.25 ng/mL, read-out: Plasma concentration of C(XX)
[15] = oral, 10 mg/kg, 10 mg/kg oral C(XX), mean (n = 2), read-out: Plasma concentration of C(XX)

In the case of CN(C)CCc1c[nH]c2cccc(OC(=O)c3cccc4c3OCCO4)c12 [C(XX)], the concentration at 4 h ([1]; intravenous, 1 mg/kg, 1 mg/kg i.v. C(XX), Mean ± SD, read-out: Plasma concentration of C(XX)) is reported as 0.181 ± 0.0663 ng/mL, the concentration at 4 h ([1]; intravenous, 1 mg/kg, 1 mg/kg i.v. C(XX), per animal, BLQ <0.25 ng/mL, read-out: Plasma concentration of C(XX)) is reported as 0.257 ng/mL and the half-life ([1]; iv, 1 mg/kg, 1 mg/kg i.v. C(XX), mean ± SD, read-out: Apparent t1/2 of C(XX) in plasma (converted)) is reported as 33.8 min. It also gave a clearance [1, 7] of 320 mL/min/kg, an AUC(0-inf) ([1]; iv, 1 mg/kg, C(XX) in plasma, 1 mg/kg i.v. C(XX), Mean ± SD, read-out: AUC0-inf) of 53 ± 8.26 ng·h/mL and an AUC(0-t) ([1]; iv, 1 mg/kg, C(XX) in plasma, 1 mg/kg i.v. C(XX), Mean ± SD, read-out: AUC0-tlast) of 52.8 ± 8.3 ng·h/mL. For the same compound, the half-life ([1]; iv, 1 mg/kg, C(XX) in plasma, 1 mg/kg i.v. C(XX), Mean ± SD, read-out: Apparent t1/2 (converted)) was 33.8 ± 3.23 min, the C0 [1, 7] was 161 ± 37.3 ng/mL and the MRT inf ([1]; iv, 1 mg/kg, C(XX) in plasma, 1 mg/kg i.v. C(XX), Mean ± SD, read-out: MRT0-inf) was 24.7 ± 2.27 min. It also gave a Vd [1, 7] of 7.94 ± 1.79 L/kg, a clearance [1, 8] of 345 mL/min/kg and an AUC(0-inf) ([1]; iv, 1 mg/kg, C(XX) in plasma, 1 mg/kg i.v. C(XX), per animal, read-out: AUC0-inf) of 48.3 ng·h/mL. It also gave an AUC(0-t) ([1]; iv, 1 mg/kg, C(XX) in plasma, 1 mg/kg i.v. C(XX), per animal, read-out: AUC0-tlast) of 48.1 ng·h/mL, a half-life ([1]; iv, 1 mg/kg, C(XX) in plasma, 1 mg/kg i.v. C(XX), per animal, read-out: Apparent t1/2 (converted)) of 37.5 min and a C0 [1, 8] of 140 ng/mL. For the same compound, the MRT inf ([1]; iv, 1 mg/kg, C(XX) in plasma, 1 mg/kg i.v. C(XX), per animal, read-out: MRT0-inf) was 26.2 min, the Vd [1, 8] was 9.03 L/kg and the concentration at 0.25 h [1, 9] was 0.603 ± 0.127 ng/mL. It also gave a concentration at 0.25 h [1, 10] of 0.701 ng/mL, a concentration at 0.5 h [1, 9] of 0.62 ± 0.0996 ng/mL and a concentration at 0.5 h [1, 10] of 0.702 ng/mL. For the same compound, the concentration at 1 h [1, 9] was 0.294 ± 0.0987 ng/mL, the concentration at 1 h [1, 10] was 0.396 ng/mL and the concentration at 0.25 h [1, 11] was 1.71 ± 0.22 ng/mL. It also gave a concentration at 0.25 h [1, 12] of 1.49 ng/mL, a concentration at 0.5 h [1, 11] of 1.34 ± 0.179 ng/mL and a concentration at 0.5 h [1, 12] of 1.45 ng/mL. The concentration at 1 h [1, 11] was 0.572 ± 0.164 ng/mL, the concentration at 1 h [1, 12] was 0.43 ng/mL and the concentration at 2 h [1, 11] was 0.175 ± 0.0621 ng/mL. For the same compound, the concentration at 2 h [1, 12] was 0.124 ng/mL, the concentration at 0.25 h [1, 13] was 7.47 ± 3.92 ng/mL and the concentration at 0.5 h [1, 13] was 4.15 ± 1.52 ng/mL. The concentration at 1 h [1, 13] was 1.99 ± 0.657 ng/mL, the concentration at 1 h [1, 14] was 1.53 ng/mL and the concentration at 2 h [1, 13] was 0.773 ± 0.279 ng/mL. It also gave a concentration at 4 h [1, 15] of 0.264 ng/mL, a concentration at 4 h [1, 14] of 0.225 ng/mL and a concentration at 6 h ([1]; oral, 10 mg/kg, 10 mg/kg oral C(XX), 6 h, mean (n = 2), read-out: Plasma concentration of C(XX)) of 0.36 ng/mL. It also gave a concentration at 8 h [1, 15] of 0.26 ng/mL, a concentration at 8 h [1, 14] of 0.335 ng/mL and a Cmax ([1]; po, 1 mg/kg, C(XX) in plasma, 1 mg/kg oral C(XX), Mean ± SD, read-out: Cmax) of 0.62 ± 0.0996 ng/mL. For the same compound, the Tmax ([1]; po, 1 mg/kg, C(XX) in plasma, 1 mg/kg oral C(XX), Mean ± SD, read-out: tmax) was 25 ± 8.64 min, the Cmax ([1]; po, 1 mg/kg, C(XX) in plasma, 1 mg/kg oral C(XX), per animal, read-out: Cmax) was 0.702 ng/mL and the Tmax ([1]; po, 1 mg/kg, C(XX) in plasma, 1 mg/kg oral C(XX), per animal, read-out: tmax) was 30 min. The half-life ([1]; po, 3 mg/kg, 3 mg/kg p.o. C(XX), mean ± SD, read-out: Apparent t1/2 of C(XX) in plasma (converted)) was 31.7 min, the AUC(0-inf) ([1]; po, 3 mg/kg, C(XX) in plasma, 3 mg/kg oral C(XX), Mean ± SD, read-out: AUC0-inf) was 1.51 ± 0.21 ng·h/mL and the AUC(0-t) ([1]; po, 3 mg/kg, C(XX) in plasma, 3 mg/kg oral C(XX), Mean ± SD, read-out: AUC0-tlast) was 1.37 ± 0.137 ng·h/mL. It also gave a half-life ([1]; po, 3 mg/kg, C(XX) in plasma, 3 mg/kg oral C(XX), Mean ± SD, read-out: Apparent t1/2 (converted)) of 31.7 ± 7.38 min, a Cmax ([1]; po, 3 mg/kg, C(XX) in plasma, 3 mg/kg oral C(XX), Mean ± SD, read-out: Cmax) of 1.71 ± 0.22 ng/mL and an MRT inf ([1]; po, 3 mg/kg, C(XX) in plasma, 3 mg/kg oral C(XX), Mean ± SD, read-out: MRT0-inf) of 53.9 ± 9.48 min. For the same compound, the Tmax ([1]; po, 3 mg/kg, C(XX) in plasma, 3 mg/kg oral C(XX), Mean ± SD, read-out: tmax) was 15 min, the AUC(0-inf) ([1]; po, 3 mg/kg, C(XX) in plasma, 3 mg/kg oral C(XX), per animal, read-out: AUC0-inf) was 1.3 ng·h/mL and the AUC(0-t) ([1]; po, 3 mg/kg, C(XX) in plasma, 3 mg/kg oral C(XX), per animal, read-out: AUC0-tlast) was 1.22 ng·h/mL. The half-life ([1]; po, 3 mg/kg, C(XX) in plasma, 3 mg/kg oral C(XX), per animal, read-out: Apparent t1/2 (converted)) was 26.3 min, the Cmax ([1]; po, 3 mg/kg, C(XX) in plasma, 3 mg/kg oral C(XX), per animal, read-out: Cmax) was 1.49 ng/mL and the MRT inf ([1]; po, 3 mg/kg, C(XX) in plasma, 3 mg/kg oral C(XX), per animal, read-out: MRT0-inf) was 47.6 min. The Tmax ([1]; po, 3 mg/kg, C(XX) in plasma, 3 mg/kg oral C(XX), per animal, read-out: tmax) was 15 min, the AUC(0-inf) ([1]; po, 10 mg/kg, 10 mg/kg oral C(XX), individual animals, read-out: AUC0-inf of C(XX) in plasma) was 5.4 ng·h/mL and the AUC(0-t) ([1]; po, 10 mg/kg, 10 mg/kg oral C(XX), individual animals, read-out: AUC0-tlast of C(XX) in plasma) was 5.65 ng·h/mL. For the same compound, the Tmax ([1]; po, 10 mg/kg, 10 mg/kg oral C(XX), individual animals, read-out: tmax of C(XX) in plasma) was 15 min, the AUC(0-inf) ([1]; po, 10 mg/kg, 10 mg/kg oral C(XX), mean (n = 2), read-out: AUC0-inf of C(XX) in plasma) was 8.03 ng·h/mL and the half-life ([1]; po, 10 mg/kg, 10 mg/kg oral C(XX), mean (n = 2), read-out: Apparent t1/2 of C(XX) in plasma (converted)) was 186 min. It also gave an MRT inf ([1]; po, 10 mg/kg, 10 mg/kg oral C(XX), mean (n = 2), read-out: MRT0-inf of C(XX) in plasma) of 131 min, an AUC(0-t) ([1]; po, 10 mg/kg, 10 mg/kg oral C(XX), mean ± SD, read-out: AUC0-tlast of C(XX) in plasma) of 6.6 ± 2.24 ng·h/mL and a Cmax ([1]; po, 10 mg/kg, 10 mg/kg oral C(XX), mean ± SD, read-out: Cmax of C(XX) in plasma) of 7.47 ± 3.92 ng/mL. The Tmax ([1]; po, 10 mg/kg, 10 mg/kg oral C(XX), mean ± SD, read-out: tmax of C(XX) in plasma) was 15 min, the IC50 [2] was over 100 µM and the IC50 [3] was over 100 µM. For the same compound, the IC50 [4] was over 100 µM, the EC50 [5] was over 100 µM and the EC50 [6] was 2.03 µM.
